Reference: ChEMBL document CHEMBL3301361, “Experimental in vitro DMPK and physicochemical data on a set of publicly disclosed compounds”
Values after ≈ are worked out from the molar mass of the structure shown.

Key:
physchem [1] = conditions: pH 7.4 buffer
physchem [2] = conditions: octan-1-ol/water, pH 7.4, LogD7.4

Row | Compound | solubility thermodynamic (physchem [1]) | logD (physchem [2])
1 | Cc1ncc(-c2ccnc(Nc3ccccc3)n2)n1C(C)C | 35.5 µM (≈ 10.4 µg/mL) | 3.58
2 | O=C(NCCSCc1ccccc1)c1ccccc1 | 72.4 µM (≈ 19.6 µg/mL) | 3.3
3 | COCC(=O)N1CCC(n2cc(-c3cnc(N)c(-c4nc5ccccc5o4)c3)cn2)CC1 | 1.9 µM (≈ 0.822 µg/mL) | 3.4
4 | CS(=O)(=O)c1cccc(Nc2nccc(Nc3c(Cl)ccc4ccoc34)n2)c1 | 11.5 µM (≈ 4.77 µg/mL) | 3.7
5 | CS(=O)(=O)c1cccc(Nc2nccc(Nc3cccc4ccoc34)n2)c1 | 5.4 µM (≈ 2.05 µg/mL) | 3.52
6 | COc1ccc(Cl)cc1NC(=O)Nc1cnccn1 | 0.7 µM (≈ 0.195 µg/mL) | 3.63
7 | Cc1nc(CSc2ccc(Cl)cc2)cc(N2CCOCC2)n1 | 107 µM (≈ 36 µg/mL) | 3.38
8 | Oc1nc(-c2ccccc2)c(-c2ccccc2)o1 | 107 µM (≈ 25.4 µg/mL) | 3.42
9 | CC(Nc1ncnc2ccccc12)c1ccccc1 (configuration not stated) | 123 µM (≈ 30.7 µg/mL) | 3.4
10 | COc1ccc(-c2nc3n(c2Br)CCC3)cc1 | 25.1 µM (≈ 7.36 µg/mL) | 3.3
11 | COc1ccc(-c2csc(N(CCCN3CCOCC3)C(=O)c3ccco3)n2)cc1 | 1.1 µM (≈ 0.47 µg/mL) | 3.34
12 | Nc1nc(-c2ccc(Cl)cc2)cs1 | 83.2 µM (≈ 17.5 µg/mL) | 3.31
13 | O=C(CN1CCOCC1)Nc1ccc(-c2cccc3c(=O)cc(N4CCOCC4)oc23)cc1OCC1CC1 | 1.5 µM (≈ 0.779 µg/mL) | 3.3
14 | O=C(c1ccc(F)cc1)C1CCN(C(=S)Nc2ccc(F)cc2)CC1 | 2.5 µM (≈ 0.901 µg/mL) | 3.4
15 | COCCOc1cc(Nc2nccc(N(C)c3cc(CO)ccc3C)n2)cc(N2CCOCC2)c1 | 126 µM (≈ 60.4 µg/mL) | 3.3
16 | Cc1ccc(CO)cc1N(C)c1ccnc(Nc2cc(N3CCOCC3)nc(N3CCOCC3)c2)n1 | 39.8 µM (≈ 19.6 µg/mL) | 3.44
17 | CSCCC(NC(=O)c1sccc1Cl)c1nc2ccccc2[nH]1 (configuration not stated) | 25.7 µM (≈ 9.4 µg/mL) | 3.69
18 | COc1cc(C(=O)N2CCOCC2)ccc1Nc1ncc(Cl)c(-c2cnc3ccccn23)n1 | 1.6 µM (≈ 0.744 µg/mL) | 3.4
19 | COc1cc(N2CCN(C(C)=O)CC2)ccc1Nc1ncc(C(F)(F)F)c(-c2cnc3ccccn23)n1 | 8.9 µM (≈ 4.55 µg/mL) | 3.7
20 | COc1cc(N2CCN(C(C)=O)CC2)ccc1Nc1ncc(Cl)c(-c2cnc3c(N)cccn23)n1 | 0.9 µM (≈ 0.444 µg/mL) | 3.4
21 | COc1cc(N2CCN(C(C)=O)CC2)ccc1Nc1ncc(Cl)c(-c2cnc3cc(N4CCCC4)ccn23)n1 | 1.4 µM (≈ 0.766 µg/mL) | 3.5
22 | O=C(NCC(=O)N(CCO)c1ccccc1)c1cc2cc(Cl)ccc2[nH]1 | 1.8 µM (≈ 0.669 µg/mL) | 3.37

Row | Compound | solubility thermodynamic (physchem [1]) | logD (physchem [2])
23 | C=CCN(C(=O)NCc1ccc(OC)cc1)C1CCN(CCC(c2ccccc2)c2ccccc2)CC1 | 53.7 µM (≈ 26.7 µg/mL) | 3.6
24 | O=C(Nc1ccccc1)c1ccc(OCCCN2CCCC2)cc1OCc1cccc(F)c1 | 44.7 µM (≈ 20 µg/mL) | 3.67
25 | CN(C(=O)NCc1ccccc1)C1CCN(CCC(c2ccccc2)c2ccccc2)CC1 | 25.7 µM (≈ 11.3 µg/mL) | 3.4
26 | CCOC(=O)c1ccc(OCCC2(C#N)CCN(c3ccc(C)nn3)CC2)cc1 | 58.9 µM (≈ 23.2 µg/mL) | 3.54
27 | COc1ccc(C(=O)Nc2cccc(NC(=O)c3cccc(N(C)C)c3)c2)cc1OC | 1.4 µM (≈ 0.587 µg/mL) | 3.67
28 | COc1cc2ncnc(Nc3cc(NC(=O)c4cccc(N5CCOCC5)c4)ccc3C)c2cc1OC | 14.5 µM (≈ 7.24 µg/mL) | 3.6
29 | COc1cc2ncnc(Nc3cc(NC(=O)c4ccnc(N5CCOCC5)c4)ccc3C)c2cc1OCCN1CCCCC1 | 813 µM (≈ 486 µg/mL) | 3.35
30 | COc1ccc(-c2c(-c3ccc(O)cc3O)n[nH]c2C)cc1 | 209 µM (≈ 61.9 µg/mL) | 3.37
31 | CCn1cc(NC(=O)Cc2ccc(Oc3ccnc4cc(OC)c(OC)cc34)cc2OC)cn1 | 22.9 µM (≈ 10.6 µg/mL) | 3.42
32 | Cc1nn(C2CCN(C)CC2)cc1-c1cnc(N)c(-c2nc3ccccc3o2)c1 | 21.4 µM (≈ 8.31 µg/mL) | 3.4
33 | Cc1cccc(Nc2nnc(C(=O)Nc3ccc(N4CCOCC4)nc3)o2)c1 | 4.8 µM (≈ 1.83 µg/mL) | 3.42
34 | O=C(Nc1ccc(Cl)c(Cl)c1)N1CCN(C[C@@H]2CCCN(C3CC3)C2)CC1 | 288 µM (≈ 119 µg/mL) | 3.57
35 | Cc1ccc(NC(=O)N2CCN(C[C@@H]3CCCN(C4CC4)C3)CC2)cc1Cl | 575 µM (≈ 225 µg/mL) | 3.37
36 | COc1cc2ncnc(Nc3cccc(Cl)c3F)c2cc1CN1CCC[C@H]1C(N)=O | 257 µM (≈ 110 µg/mL) | 3.58
37 | COc1cc2ncnc(Nc3cccc(Cl)c3F)c2cc1CN(C)[C@@H](C)C(N)=O | 42.7 µM (≈ 17.8 µg/mL) | 3.42
38 | CN1CCC(n2cc(-c3cnc(N)c(-c4nc5ccc(F)cc5o4)c3)cn2)CC1 | 13.5 µM (≈ 5.3 µg/mL) | 3.35
39 | COc1cc2ncnc(Nc3cccc(Cl)c3F)c2cc1CN(C)[C@H](C)C(N)=O | 41.7 µM (≈ 17.4 µg/mL) | 3.44
40 | COc1cc2ncnc(Nc3cccc(Cl)c3F)c2cc1CN1CCC[C@@H]1C(N)=O | 195 µM (≈ 83.8 µg/mL) | 3.58
41 | CCCc1cc(Nc2nc(NCc3cc(C)no3)ncc2Br)n[nH]1 | 2.7 µM (≈ 1.06 µg/mL) | 3.63
42 | CCCSc1ncccc1C(=O)N(C)C1CCCCC1 | 955 µM (≈ 279 µg/mL) | 3.36
43 | COc1cc2c(Nc3cc(CC(=O)Nc4cccc(F)c4F)[nH]n3)ncnc2cc1OCCCN(CCO)CC(C)C | 132 µM (≈ 76.9 µg/mL) | 3.61
44 | COc1cc2c(Nc3ccc(Cl)cc3F)ncnc2cc1OCCCN1CCOCC1 | 21.9 µM (≈ 9.79 µg/mL) | 3.4

Row | Compound | solubility thermodynamic (physchem [1]) | logD (physchem [2])
45 | CN(C)CCOc1ccc(-c2oc3ncnc(NC[C@@H]4CCCO4)c3c2-c2ccccc2)cc1 | 69.2 µM (≈ 31.7 µg/mL) | 3.6
46 | Cc1ccc(Oc2ccc(Nc3ncnc4[nH]nc(OCCN5CCC(O)CC5)c34)cc2Cl)cn1 | 28.2 µM (≈ 14 µg/mL) | 3.4
47 | COc1cc2ncnc(Nc3ccc(F)c(Cl)c3)c2cc1OC | 7.2 µM (≈ 2.4 µg/mL) | 3.67
48 | CS(=O)(=O)n1c2ccccc2c2cc(NC(=O)CCc3ccncc3)ccc21 | 22.9 µM (≈ 9.01 µg/mL) | 3.4
49 | O=C(CCc1ccncc1)Nc1ccc(C(=O)c2ccccc2)cc1 | 8.1 µM (≈ 2.68 µg/mL) | 3.4
50 | CN(C)C(=O)[C@H](Cc1ccccc1)NC(=O)c1cc2cc(F)ccc2[nH]1 | 3.6 µM (≈ 1.27 µg/mL) | 3.5
51 | Oc1cccc2nc(-c3ccccc3)cc(O)c12 | 5 µM (≈ 1.19 µg/mL) | 3.37
52 | O=C(CO)N1CCC[C@H]1COc1cccc2ncnc(Nc3ccc(OCc4ccccn4)c(Cl)c3)c12 | 1.9 µM (≈ 0.988 µg/mL) | 3.62
53 | COc1cc(Nc2ncnc3cccc(O[C@H](C)C(=O)N4CCOCC4)c23)ccc1Oc1ccc(C)nc1 | 37.2 µM (≈ 19.2 µg/mL) | 3.6
54 | C[C@@H](Oc1cccc2ncnc(Nc3ccc(OCc4ccccn4)c(Cl)c3)c12)C(=O)N(C)C | 6.2 µM (≈ 2.96 µg/mL) | 3.67
55 | Oc1ccc(-c2nc3ccc(O)cc3s2)cc1 | 27.5 µM (≈ 6.69 µg/mL) | 3.65
56 | Cc1ncc(-c2ccnc(Nc3ccc(N(C)C)cc3)n2)n1C(C)C | 100 µM (≈ 33.6 µg/mL) | 3.51
57 | Cc1ncc(-c2ccnc(Nc3ccc(F)cc3)n2)n1C(C)C | 107 µM (≈ 33.4 µg/mL) | 3.62
58 | COc1ccc(Nc2nccc(-c3cnc(C)n3C(C)C)n2)cc1 | 209 µM (≈ 67.6 µg/mL) | 3.43
59 | CCCS(=O)(=O)c1ccc(Nc2nccc(-c3cnc(C)n3C(C)C)n2)cc1 | 138 µM (≈ 55.1 µg/mL) | 3.37
60 | CC(C)C[C@H](NC(=O)N1CCOCC1)C(=O)N[C@H](/C=C/S(=O)(=O)c1ccccc1)CCc1ccccc1 | 17 µM (≈ 8.97 µg/mL) | 3.4
61 | COc1cc2ncc(C(N)=O)c(Nc3cccc(Cl)c3)c2cc1OC | 10 µM (≈ 3.58 µg/mL) | 3.5
62 | CC(C)Oc1cc(Oc2ccc(S(C)(=O)=O)cc2)cc(C(=O)Nc2nccs2)c1 | 5.2 µM (≈ 2.25 µg/mL) | 3.61
63 | COc1ccccc1Nc1cc(Oc2cc(C)c(C)nc2-c2ccccn2)ccn1 | 22.9 µM (≈ 9.12 µg/mL) | 3.37
64 | O=C(N1CCN(c2ccncc2Cl)CC1)N1CCN(S(=O)(=O)c2ccc(C(F)(F)F)cc2)CC1 | 3.9 µM (≈ 2.02 µg/mL) | 3.54
65 | COCCCNS(=O)(=O)c1ccc(Nc2nccc(-c3cnc4ccccn34)n2)cc1 | 2.4 µM (≈ 1.05 µg/mL) | 3.41
66 | COc1ccc(Cn2cc3c(=O)n(C)c(=O)n(CC(C)C)c3c2)cc1 | 17 µM (≈ 5.8 µg/mL) | 3.52
